Experiments:
[1] = target: T1, PAI-1 (Mus musculus, UniProt P22777); settings: OVA challenge model of allergic asthma; cited from earlier work
T1 sequence (P22777 23-402): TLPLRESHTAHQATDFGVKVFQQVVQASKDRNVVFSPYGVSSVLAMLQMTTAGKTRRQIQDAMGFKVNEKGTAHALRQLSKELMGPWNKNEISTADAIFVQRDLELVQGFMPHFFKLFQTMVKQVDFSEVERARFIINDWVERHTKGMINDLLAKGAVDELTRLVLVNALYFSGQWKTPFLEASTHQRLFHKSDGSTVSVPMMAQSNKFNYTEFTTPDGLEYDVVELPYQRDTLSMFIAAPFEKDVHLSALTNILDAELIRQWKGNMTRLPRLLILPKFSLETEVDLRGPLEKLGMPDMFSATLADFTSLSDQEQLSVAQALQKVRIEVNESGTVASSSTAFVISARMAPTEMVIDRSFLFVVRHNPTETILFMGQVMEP

[2] = system: PAI-1 4G promoter; assay: PAI-1 promoter luciferase reporter assay in TGF-β stimulated NHBE cells; assay type: cell-based, human; settings: NHBE cells transfected with 4G vector; TGF-β 2 ng/mL 6 hours; genistein pretreatment 5 μM 1 hour; p=0.007
Protocol: Normal human bronchial epithelial cells (NHBE) and a human mast cell line, LAD2, were cultured and transfected with luciferase plasmids containing a 4G, 5G or pGL3-basic vector (empty backbone). […] (FIG. 1B)
Normal human bronchial epithelial cells (NHBE) were cultured in 5% CO2 chamber at 37° C. with epithelial cell growth basal media (BEGM, Lonza). Cells were seeded on type 1 collagen-coated plate. Prior to transfection and stimulation, NHBEs were cultured without hydrocortisone (HC) for a day or two, at ˜80% confluency in 12 wells. Passage 2 or 3 was used for the experiment. Cells were transfected with luciferase plasmids containing different Pai-1 polymorphisms, 4G4G, 5G5G, pGL3-luciferase reporter basic vector (empty backbone, Promega, Madison, WI, USA) using Lipofectamine 3000 transfection reagent (Invitrogen, Waltham, MA, USA). Cells were stimulated for 6 hours with TGF-β (2 ng/mL, R&D Systems, Minneapolis, MN, USA) with and without genistein (Sigma-Aldrich, St. Louis, MO, USA) pretreatment (5 μM) for 1 hour. Cells were harvested and lysed in 1×PLB reagent prior to performing Dual-luciferase report assay (DLR assay, Promega, Madison, WI, USA). The firefly luciferase activity and Renilla luciferase activity were measured sequentially.

[3] = system: PAI-1 4G promoter; assay: PAI-1 promoter luciferase reporter assay in stimulated LAD2 mast cells; assay type: cell-based, human; settings: cells transfected with 4G vector, genistein pretreatment 5 μM 1 hour
Protocol: LAD2 cells, a human mast cell line, were cultured and transfected with luciferase plasmids containing a 4G, 5G or pGL3-basic vector to determine the promotor activity. These LAD2 cells were stimulated overnight with IgE (100 ng/mL) and streptavidin (500 ng/mL) (IgE+streptavidin) for IgE-receptor cross-linking or Ionomycin (100 ng/mL) and phorbol myristate acetate (PMA, 10 ng/ml) (Ionomycin+PMA) with or without genistein pretreatment (5 μM) for 1 hour. […] LAD2 cells transfected with the 5G vector didn't increase promoter activity by IgE+Streptavidin/Ionomycin+PMA stimulation compared to no treatment (FIGS. 2C and 2D).
Human mast cells (LAD2) were grown in complete serum-free growth media (Stem pro-34 with the supplement, penicillin/streptomycin, L-glutamine and SCF recombinant, Invitrogen, Waltham, MA, USA). Cells were cultured in cytokine-free media (without SCF recombinant) at density of ˜0.5×10^6 per mL for a day prior to transfection and stimulation. Cells were transfected with luciferase plasmids containing different Pai-1 polymorphisms, 4G4G, 5G5G, pGL3-luciferase reporter basic vector (empty backbone, Promega, Madison, WI) using Lipofectamine 3000 transfection reagent (Invitrogen, Waltham, MA, USA). […] The firefly luciferase activity and Renilla luciferase activity were measured sequentially.

[4] = system: PAI-1; settings: normal bronchial epithelial cells; cited from earlier work

Row | Compound | Airway hyperresponsiveness (AHR) [1] | Degree of eosinophilic airway inflammation [1] | PAI-1 4G promoter activity increased by TGF-β1 stimulation [2] | PAI-1 4G promoter activity increased by IgE+Streptavidin stimulation ([3]; IgE 100 ng/mL + streptavidin 500 ng/mL, p=0.05) | PAI-1 4G promoter activity increased by Ionomycin+PMA stimulation ([3]; Ionomycin 100 ng/mL + PMA 10 ng/ml, p<0.05) | TGF-β1-induced PAI-1 production [4]
1 | O=C(O)C(=O)c1cn(Cc2ccccc2)c2ccc(-c3ccc(OC(F)(F)F)cc3)cc12 [Tiplaxtinin] | reduced | reduced |  |  |  | 
2 | O=c1c(-c2ccc(O)cc2)coc2cc(O)cc(O)c12 [genistein, 5,7-dihydroxy-3-(4-hydroxyphenyl)-chromen-4-onc] |  |  | blocked by genistein pretreatment significantly | blocked by genistein pretreatment significantly | blocked by genistein pretreatment significantly | downregulation
